How the values were obtained:
Assay in all cases: relative viability (nuclei count vs DMSO), 5 days (fraction); higher = more cells survive
[1] = compound: CC(C)Oc1cc(Nc2nc(N[C@@H](C)c3ccc(F)cn3)ncc2Cl)n[nH]1 [AZ23]
In short: (§1)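 MetaXpress counted nuclei in 4× images of lung cancer cell lines that had been fixed, permeabilised and Hoechst-stained in one step. Before that, cells in 1536-well plates were kept overnight at 37 °C, pinned with five √10-spaced library-drug doses on vehicle-anchored plates, and cultured 5 days without medium change. Viability takes treated-well nuclei over vehicle-well nuclei and uses the median across plates. Plates were accepted only at control CV below 25% and at least one doubling.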

[2] = compound: CC(C)S(=O)(=O)C1=CC=CC=C1NC2=NC(=NC(=C2Cl)N)NC3=C(C=C(C=C3)N4CCC(CC4)C(=O)N)OC [HG-5-88-01]
In short: as §1

[3] = compound: Clc1ccc(Nc2nnc(Cc3ccncc3)c3ccccc23)cc1 [Vatalanib]
In short: as §1

[4] = compound: C[C@@H]1CN(CC(=O)Nc2ccc3c(c2)Cc2cccc(-c4cc(=O)cc(N5CCOCC5)o4)c2S3)C[C@H](C)O1
In short: as §1

[5] = compound: CCCCCCCCCCCC1=C(O)C(=O)C=C(O)C1=O [Embelin]
In short: as §1

Row | Cell Line | relative viability ([1]; 0.01 µM) | relative viability ([1]; 0.03162 µM) | relative viability ([1]; 0.3162 µM) | relative viability ([2]; 0.04 µM) | relative viability ([2]; 0.1265 µM) | relative viability ([2]; 0.4 µM) | relative viability ([2]; 1.265 µM) | relative viability ([2]; 4 µM) | relative viability ([3]; 0.04 µM) | relative viability ([3]; 0.1265 µM) | relative viability ([3]; 0.4 µM) | relative viability ([3]; 1.265 µM) | relative viability ([3]; 4 µM) | relative viability ([4]; 0.04 µM) | relative viability ([4]; 0.1265 µM) | relative viability ([4]; 0.4 µM) | relative viability ([4]; 4 µM) | relative viability ([5]; 0.08 µM) | relative viability ([5]; 0.8 µM) | relative viability ([5]; 2.53 µM) | relative viability ([5]; 8 µM)
1 | A-427 | 0.921 | 1.07 | 1.15 | 0.94 | 1.02 | 1.02 | 1.11 | 0.534 | 1.03 | 0.97 | 0.983 | 0.863 | 0.989 | 0.956 | 0.945 | 1.06 | 0.938 | 1.06 | 1.03 | 1.04 | 0.943
2 | HOP-62 | 1.13 | 1.11 | 1.12 | 1.03 | 1.06 | 0.92 | 1.02 | 1.02 | 0.954 | 0.957 | 1.07 | 0.949 | 1.01 | 0.978 | 0.991 | 0.973 | 0.988 | 1.02 | 1.07 | 1.1 | 0.984
3 | A549 | 1.23 | 1.12 | 0.922 | 0.997 | 0.954 | 0.909 | 0.726 | 0.75 | 1.01 | 0.944 | 0.998 | 0.928 | 0.929 | 0.958 | 0.922 | 0.918 | 0.806 | 0.992 | 1.06 | 1.12 | 0.97
4 | NCI-H1993 | 0.926 | 0.834 | 0.991 | 0.879 | 0.998 | 0.9 | 0.611 | 0.861 | 0.818 | 0.871 | 0.923 | 0.748 | 0.815 | 1.07 | 0.96 | 0.761 | 0.938 | 1.05 | 0.888 | 1.05 | 0.843
5 | NCI-H2023 |  | 1.11 | 1.13 | 1.04 | 0.958 | 0.795 | 0.725 | 0.633 | 1.02 | 0.88 | 1.12 | 0.893 | 0.933 | 1.04 | 0.937 | 0.773 | 0.681 | 1 | 0.926 | 1.07 | 0.736
6 | LXF-289 | 1.17 | 1.04 | 1.02 | 1.04 | 1.03 | 0.976 | 0.974 | 0.986 | 1.05 | 0.935 | 1.02 | 0.958 | 1 | 0.974 | 1.01 | 1.04 | 0.976 | 1.04 | 1.04 | 1.01 | 1.09
7 | NCI-H596 | 1.07 | 0.915 | 0.962 | 1.01 | 0.933 | 1.04 | 0.994 | 0.576 | 0.97 | 1.15 | 1.06 | 0.954 | 0.912 | 0.947 | 0.982 | 0.783 | 0.885 | 0.981 | 0.986 | 1.16 | 0.732
8 | SW 1573 | 1.15 | 1.16 | 0.881 | 0.962 | 0.978 | 0.969 | 0.834 | 0.864 | 0.957 | 0.995 | 1.19 | 0.868 | 1.03 | 0.992 | 1.04 | 0.922 | 1.06 | 0.972 | 1.33 | 1.16 | 1.02
9 | NCI-H1944 | 0.971 | 1.13 | 1.05 | 0.988 | 1.01 | 0.913 | 0.972 | 0.902 | 0.987 | 0.848 | 1.1 | 1.01 | 0.907 |  | 0.958 | 1.03 | 0.952 | 1 | 1.07 | 1.06 | 0.961
10 | NCI-H1734 | 1.03 | 1.01 | 0.983 | 0.88 | 0.978 | 0.959 | 0.886 | 1.1 | 0.977 | 0.916 | 1.11 | 0.95 | 1.06 | 1.01 | 1.03 | 1.04 | 1.12 | 1.05 | 1.23 | 1.19 | 0.874
11 | NCI-H1563 | 1.06 | 1.02 | 0.967 | 1.02 | 0.932 | 0.974 | 0.811 | 1.19 | 1.04 | 0.889 | 1.03 | 0.918 | 0.937 | 0.947 | 0.901 | 0.941 | 0.935 | 0.946 | 1.17 | 0.978 | 0.978
12 | NCI-H2405 | 0.982 | 1.09 | 0.911 | 1.03 | 1 | 0.925 | 0.802 | 0.901 | 1.01 | 0.919 | 0.732 | 0.919 | 0.946 | 1.09 | 1.05 | 0.972 | 0.983 | 1.09 | 1.09 | 0.993 | 0.921
13 | NCI-H1793 | 1.1 | 1.07 | 1.07 |  | 0.942 | 0.985 | 0.668 | 0.792 | 0.902 | 0.879 | 1.07 | 0.839 | 0.774 | 1.01 | 0.866 | 1.05 | 0.581 | 0.918 | 1.08 | 1.06 | 0.431
14 | NCI-H322M | 0.695 | 0.974 | 1.07 | 0.811 | 0.872 | 0.876 | 0.494 | 0.718 | 0.938 | 0.946 | 0.936 | 0.904 | 0.917 | 0.823 | 0.947 | 0.961 | 0.827 | 0.987 | 0.996 | 1.03 | 0.915
15 | PC-3 [JPC-3] | 1.08 | 1.12 | 1.04 | 1.08 | 1.05 | 0.998 | 0.749 | 0.477 | 0.974 | 0.984 | 1 | 1.01 | 0.988 | 0.976 | 1.01 | 1.03 | 0.986 | 1.08 | 1.05 | 1.11 | 0.974
16 | NCI-H650 | 0.867 | 1.09 | 0.921 | 1.04 | 0.993 | 0.829 | 0.902 | 0.576 | 1.01 | 0.885 |  | 0.779 | 0.847 | 0.944 | 0.95 | 1.07 | 0.722 | 0.821 | 1.09 | 0.909 | 0.739

— the supplement of paper PMC10307832
